Results reported in publication PMC3735939, “The low levels of eicosapentaenoic acid in rat brain phospholipids are maintained via multiple redundant mechanisms” (Journal of Lipid Research, 2013).

Experiments:
[1] = cited from earlier work
[2] = In vivo kinetics of FA incorporation and turnover in brain phospholipids (intravenous radiotracer infusion, kinetic model); set-up: species or system rat
Procedure: Twenty-four hours postsurgery, a second catheter (iv catheter 24 gauge/0.75 inch, Angiocath™; Becton Dickinson) was implanted into the tail vein where rats received either vehicle or 10 mg/kg of MEP. […] The radiotracers were infused for 5 min via the tail vein catheter at a rate of 0.223(1 + e^−19.2t) ml/min (t is infusion time in minutes) ([37]) which achieves a steady-state plasma radioactivity within 1 min ([18], [38]). […] During the 5 min infusion, blood samples were collected from the jugular vein at approximately 0, 0.25, 0.5, 0.75, 1.5, 3, 4, and 5 min while the unanesthetized rat was mobile in the infusion box with food and water. […] After 5 min, the rats were rapidly euthanized by head-focused high-energy microwave irradiation (13.5 kW for 1.6 s; Cober Electronics Inc., Stratford, CT). The radiotracer infusions continued until rats were euthanized. The brain was excised and cut sagittally. Both hemispheres were stored at −80°C for radioactive and biochemical analyses. Plasma was isolated from whole blood via microcentrifugation at 6,200 rpm (2,000 g) for 5 min and stored at −80°C.
The model for in vivo kinetics of brain FAs in rats has been previously described ([17], [18], [21], [23], [25], [37], [41]).
Because the infusion is 5 min, contributions of FA from de novo synthesis and esterified plasma FA are negligible ([18], [20], [23], [41]); thus only contributions from plasma unesterified FAs and acyl-CoA pools were considered in the calculation of λpalmitate, DHA, or EPA .

| SMILES | FFA rate of turnover ([2]; ChoGpl, MEP) [%/day] | JFA net incorporation rate from brain acyl-CoA ([2]; ChoGpl, MEP) [nmol/g/day] | Jin net incorporation rate from plasma unesterified FA ([2]; ChoGpl, MEP) [nmol/g/day] | FFA rate of turnover ([2]; ChoGpl, Vehicle) [%/day] | JFA net incorporation rate from brain acyl-CoA ([2]; ChoGpl, Vehicle) [nmol/g/day] | Jin net incorporation rate from plasma unesterified FA ([2]; ChoGpl, Vehicle) [nmol/g/day] | FFA rate of turnover ([2]; EtnGpl, MEP) [%/day] | JFA net incorporation rate from brain acyl-CoA ([2]; EtnGpl, MEP) [nmol/g/day] | Jin net incorporation rate from plasma unesterified FA ([2]; EtnGpl, MEP) [nmol/g/day] | FFA rate of turnover ([2]; EtnGpl, Vehicle) [%/day] | JFA net incorporation rate from brain acyl-CoA ([2]; EtnGpl, Vehicle) [nmol/g/day] | Jin net incorporation rate from plasma unesterified FA ([2]; EtnGpl, Vehicle) [nmol/g/day] | FFA rate of turnover ([2]; Total PL, MEP) [%/day] | JFA net incorporation rate from brain acyl-CoA ([2]; Total PL, MEP) [nmol/g/day] | Jin net incorporation rate from plasma unesterified FA ([2]; Total PL, MEP) [nmol/g/day] | FFA rate of turnover ([2]; Total PL, Vehicle) [%/day] | JFA net incorporation rate from brain acyl-CoA ([2]; Total PL, Vehicle) [nmol/g/day] | Jin net incorporation rate from plasma unesterified FA ([2]; Total PL, Vehicle) [nmol/g/day] | other results |
| --- | --- | --- | --- | --- | --- | --- | --- | --- | --- | --- | --- | --- | --- | --- | --- | --- | --- | --- | --- |
| CCCCC/C=C\C/C=C\C/C=C\C/C=C\CCCC(=O)O [ARA, arachidonic acid] |  |  |  |  |  |  |  |  |  |  |  |  |  |  |  |  |  |  | rate of loss from brain phospholipids [1]: 2 % per day |
| CC/C=C\C/C=C\C/C=C\C/C=C\C/C=C\C/C=C\CCC(=O)SCCNC(=O)CCNC(=O)[C@H](O)C(C)(C)COP(=O)(O)OP(=O)(O)OC[C@H]1O[C@@H](n2cnc3c(N)ncnc32)[C@H](O)[C@@H]1OP(=O)(O)O [DHA-CoA] |  |  |  |  |  |  |  |  |  |  |  |  |  |  |  |  |  |  | t1/2 half-life ([2]; Total PL, Vehicle): about 1 day; JFA into brain total phospholipids, fold higher than EPA-CoA ([2]; vehicle injection): 154 fold |
| CC/C=C\C/C=C\C/C=C\C/C=C\C/C=C\C/C=C\CCC(=O)O [EPA→DHA] | 0.070 ± 0.01 | 0.98 ± 0.14 | 0.23 ± 0.02 | 0.30 ± 0.035 | 3.8 ± 0.54 | 0.46 ± 0.089 | 0.054 ± 0.017 | 3.1 ± 0.81 | 0.71 ± 0.1 | 0.13 ± 0.023 | 7.6 ± 1.5 | 0.92 ± 0.22 | 0.022 ± 0.0035 | 1.9 ± 0.3 | 0.45 ± 0.044 | 0.091 ± 0.0089 | 7.9 ± 0.97 | 1.0 ± 0.19 |  |
| CC/C=C\C/C=C\C/C=C\C/C=C\C/C=C\CCCCCC(=O)O [EPA→n-3 DPA] | 178 ± 41 | 6.2 ± 0.91 | 1.4 ± 0.12 | 192 ± 25 | 6.5 ± 0.92 | 0.79 ± 0.15 | 153 ± 44 | 13 ± 3.5 | 3.0 ± 0.43 | 147 ± 30 | 12 ± 2.5 | 1.5 ± 0.36 | 149 ± 35 | 21 ± 3.3 | 5.0 ± 0.49 | 123 ± 34 | 18 ± 2.2 | 2.2 ± 0.44 | FFA rate of turnover ([2]; PtdIns, MEP): 260 ± 113 %/day; JFA net incorporation rate from brain acyl-CoA ([2]; PtdIns, MEP): 1.6 ± 0.77 nmol/g/day; Jin net incorporation rate from plasma unesterified FA ([2]; PtdIns, MEP): 0.39 ± 0.22 nmol/g/day; FFA rate of turnover ([2]; PtdIns, Vehicle): 336 ± 62 %/day; JFA net incorporation rate from brain acyl-CoA ([2]; PtdIns, Vehicle): 2.3 ± 0.1 nmol/g/day; Jin net incorporation rate from plasma unesterified FA ([2]; PtdIns, Vehicle): 0.27 ± 0.045 nmol/g/day; FFA rate of turnover ([2]; PtdSer, MEP): 20 ± 3.6 %/day; JFA net incorporation rate from brain acyl-CoA ([2]; PtdSer, MEP): 1.1 ± 0.11 nmol/g/day; Jin net incorporation rate from plasma unesterified FA ([2]; PtdSer, MEP): 0.25 ± 0.05 nmol/g/day; FFA rate of turnover ([2]; PtdSer, Vehicle): 31 ± 11 %/day; JFA net incorporation rate from brain acyl-CoA ([2]; PtdSer, Vehicle): 1.8 ± 0.45 nmol/g/day; Jin net incorporation rate from plasma unesterified FA ([2]; PtdSer, Vehicle): 0.21 ± 0.068 nmol/g/day |
